According to patent publication US20220348572A1, “BRIDGED HETEROCYCLYL-SUBSTITUTED PYRIMIDINE COMPOUND, PREPARATION METHOD THEREFOR, AND PHARMACEUTICAL USE THEREOF” (The National Institutes of Pharmaceutical R&D Co., Ltd., priority 2019, published 2022):

Biological target: T1, JAK1 kinase (Homo sapiens, UniProt P23458)
T1 construct: purchased Invitrogen PV4744
Assay: In vitro inhibitory activity on JAK1 kinase (ADP-Glo Kinase Assay)
Assay type: biochemical
Conditions: JAK1 kinase 4 nM, 1 mM ATP
Method: Test Example 1: Determination of In Vitro Inhibitory Activity of the Compounds of the Present Invention on JAK1 Kinase Experimental materials: JAK1 kinase (Invitrogen, PV4744), ATP (Promega, V915B), ADP-Glo Kinase Assay (Promega, V9101), IRS1 (Signalchem, 140-58-1000). Sample preparation: The compounds of the present invention and the control product were dissolved in DMSO solvent respectively to formulate into 10 mM initial liquid. The maximum concentration of the compound was 10 μM, 3-fold dilution, 10 concentration gradients, and duplicate wells for each concentration gradient. Experimental processs: 0.1 μL of the compound to be tested was transferred into a 384 reaction plate (PE, 6007290) via Echo and centrifuged at 1000 rpm/min for 1 min. 5 μL JAK1 kinase (final concentration of 4 nM) was transferred into the 384 reaction plate, which was then centrifuged at 1000 rpm/min for 1 min, and incubated at 25° C. for 15 min. 5 μL substrate mixture (1 mM ATP, IRS1 0.05 mg/ml, kinase buffer solution) was transferred into the 384 reaction plate, which was then centrifuged at 1000 rpm/min for 1 min, and incubated at 25° C. for 60 min. 10 μL ADP-Glo was transferred into the 384 reaction plate, which was then centrifuged at 1000 rpm/min for 1 min, and incubated at 25° C. for 40 min. 20 μL test solution was transferred into the 384 reaction plate, which was then centrifuged at 1000 rpm/min for 1 min and incubated at 25° C. for 40 min. RLU (Relative luminescence unit) signal was read by using an Envision multifunctional plate reader. The signal intensity was used to characterize the degree of the kinase activity. […] IC50 value of 0-100 nM is shown as A, IC50 value of 100-300 nM is shown as B, IC50 value of 300-1000 nM is shown as C, and IC50 value which is greater than 1000 nM is shown as D. NT means not tested.

T1 sequence (P23458 866-1154 limits assumed): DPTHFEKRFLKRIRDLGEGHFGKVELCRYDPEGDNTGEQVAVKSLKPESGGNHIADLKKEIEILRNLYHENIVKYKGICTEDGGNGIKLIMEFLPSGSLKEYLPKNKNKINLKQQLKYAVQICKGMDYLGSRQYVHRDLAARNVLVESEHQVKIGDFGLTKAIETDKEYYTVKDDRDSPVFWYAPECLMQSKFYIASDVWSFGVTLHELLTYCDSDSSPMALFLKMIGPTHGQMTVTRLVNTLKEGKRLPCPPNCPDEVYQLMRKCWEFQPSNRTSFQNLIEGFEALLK

IC50	Compound
300 to 1000 nM	Cn1cc(Nc2nccc(C3=CC4CCC(C3)N4C(=O)COCC(F)(F)F)n2)cn1 (stereo not shown) [Compound 69, 1-(3-(2-((1-methyl-1H-pyrazol-4-yl)amino)pyrimidin-4-yl)-8-azabicyclo[3.2.1]oct-2-en-8-yl)-2-(2,2,2-trifluoroethoxy)-1-one]
< 100 nM	O=C(NCC(F)(F)F)N1C2C=C(c3ccnc(Nc4cnn(C5CC5)c4)n3)CC1CC2 (stereo not shown) [Compound 43, 3-(2-((1-cyclopropyl-1H-pyrazol-4-yl)amino)pyrimidin-4-yl)-N-(2,2,2-trifluoroethyl)-8-azabicyclo[3.2.1]oct-2-ene-8-carboxamide]
300 to 1000 nM	Cn1cc(Nc2nccc(C3=CC4CCC(C3)N4C(=O)CCC(F)(F)F)n2)cn1 (stereo not shown) [Compound 5, 4,4,4-trifluoro-1-(3-(2-((1-methyl-1H-pyrazol-4-yl)amino)pyrimidin-4-yl)-8-azabicyclo[3.2.1]oct-2-en-8-yl)butan-1-one]
> 1000 nM	Cn1cc(Nc2nccc(C3=CC4CCC(C3)N4C(=O)C3CC(CO)C3)n2)cn1 (stereo not shown) [Compound 81, (3-(hydroxymethyl)cyclobutyl)(3-(2-((1-methyl-1H-pyrazol-4-yl)amino)pyrimidin-4-yl)-8-azabicyclo[3.2.1]oct-2-en-8-yl)methanone]
300 to 1000 nM	Cn1cc(Nc2nccc(C3=CC4CCC(C3)N4C(=O)C(C)(C)C(F)(F)F)n2)cn1 (stereo not shown) [Compound 68, 3,3,3-trifluoro-2,2-dimethyl-1-(3-(2-((1-methyl-1H-pyrazol-4-yl)amino)pyrimidin-4-yl)-8-azabicyclo[3.2.1]oct-2-en-8-yl)acetone]
> 1000 nM	Cn1cc(Nc2nccc(C3=CC4CCC(C3)N4C(=O)C3(C(F)(F)F)CC3)n2)cn1 (stereo not shown) [Compound 52, (3-(2-((1-methyl-1H-pyrazol-4-yl)amino)pyrimidin-4-yl)-8-azabicyclo[3.2.1]oct-2-en-8-yl)(1-(trifluoromethyl)cyclopropyl)methanone]
> 1000 nM	Cn1cc(Nc2nccc(C3=CC4CCC(C3)N4C(=O)c3ccc(C(F)(F)F)cc3)n2)cn1 (stereo not shown) [Compound 16, (3-(2-((1-methyl-1H-pyrazol-4-yl)amino)pyrimidin-4-yl)-8-azabicyclo[3.2.1]oct-2-en-8-yl)(4-(trifluoromethyl)phenyl)methanone]
100 to 300 nM	Cn1cc(Nc2nccc(C3=CC4CCC(C3)N4C(=O)CC(F)F)n2)cn1 (stereo not shown) [Compound 66, 3,3-difluoro-1-(3-(2-((1-methyl-1H-pyrazol-4-yl)amino)pyrimidin-4-yl)-8-azabicyclo[3.2.1]oct-2-en-8-yl)-1-acetone]
300 to 1000 nM	CC(C(=O)N1C2C=C(c3ccnc(Nc4cnn(C)c4)n3)CC1CC2)C(F)(F)F (stereo not shown) [Compound 67, 3,3,3-trifluoro-2-methyl-1-(3-(2-((1-methyl-1H-pyrazol-4-yl)amino)pyrimidin-4-yl)-8-azabicyclo[3.2.1]oct-2-en-8-yl)-1-acetone]
> 1000 nM	COC1CC(C(=O)N2C3C=C(c4ccnc(Nc5cnn(C)c5)n4)CC2CC3)C1 (stereo not shown) [Compound 80, (3-methoxycyclobutyl)(3-(2-((1-methyl-1H-pyrazol-4-yl)amino)pyrimidin-4-yl)-8-azabicyclo[3.2.1]oct-2-en-8-yl)methanone]
300 to 1000 nM	Cn1cc(Nc2nccc(C3=CC4CCC(C3)N4C(=O)NCCC(F)(F)F)n2)cn1 (stereo not shown) [Compound 57, 3-(2-((1-methyl-1H-pyrazol-4-yl)amino)pyrimidin-4-yl)-N-(3,3,3-trifluoropropyl)-8-azabicyclo[3.2.1]oct-2-ene-8-carboxamide]
< 100 nM	Cn1cc(Nc2nccc(C3=CC4CCC(C3)N4C(=O)CC3CC(F)(F)C3)n2)cn1 (stereo not shown) [Compound 79, 2-(3,3-difluorocyclobutyl)-1-(3-(2-((1-methyl-1H-pyrazol-4-yl)amino)pyrimidin-4-yl)-8-azabicyclo[3.2.1]oct-2-en-8-yl)-1-acetone]
> 1000 nM	Cn1cc(Nc2nccc(C3=CC4CCC(C3)N4C(=O)C3CCOCC3)n2)cn1 (stereo not shown) [Compound 78]
> 1000 nM	Cn1cc(Nc2nccc(C3=CC4CCC(C3)N4C(=O)C3CC3(C)C)n2)cn1 (stereo not shown) [Compound 60, (2,2-Dimethylcyclopropyl)(3-(2-((1-methyl-1H-pyrazol-4-yl)amino)pyrimidin-4-yl)-8-azabicyclo[3.2.1]oct-2-en-8-yl)methanone]
100 to 300 nM	Cn1cc(Nc2nccc(C3=CC4CCC(C3)N4C(=O)[C@@H]3C[C@H]3C#N)n2)cn1 (stereo partly drawn) [Compound 47, (1R,2R)-2-(3-(2-((1-methyl-1H-pyrazol-4-yl)amino)pyrimidin-4-yl)-8-azabicyclo[3.2.1]oct-2-ene-8-formyl)cyclopropane-1-carbonitrile]
< 100 nM	Cn1cc(Nc2nccc(C3=CC4CCC(C3)N4C(=O)C3CC3C(F)(F)F)n2)cn1 (stereo not shown) [Compound 49, (3-(2-((1-methyl-1H-pyrazol-4-yl)amino)pyrimidin-4-yl)-8-azabicyclo[3.2.1]oct-2-en-8-yl)(2-(trifluoromethyl)cyclopropyl)methanone]

Continued, compound first:

Compound	IC50
Cn1cc(Nc2nccc(C3=CC4CCC(C3)N4C(=O)C(=O)NCC#N)n2)cn1 (stereo not shown) [Compound 83, N-(cyanomethyl)-2-(3-(2-((1-methyl-1H-pyrazol-4-yl)amino)pyrimidin-4-yl)-8-azabicyclo[3.2.1]oct-2-en-8-yl)-2-oxoacetamide]	> 1000 nM
Cc1cnc(Nc2cnn(C)c2C)nc1C1=CC2CCC(C1)N2C(=O)NCC(F)(F)F (stereo not shown) [Compound 27, 3-(2-((1,5-dimethyl-1H-pyrazol-4-yl)amino)-5-methylpyrimidin-4-yl)-N-(2,2,2-trifluoroethyl)-8-azabicyclo[3.2.1]oct-2-ene-8-carboxamide]	300 to 1000 nM
Cc1cnc(Nc2cn(C)nc2C)nc1C1=C[C@@H]2CC[C@H](C1)N2C(=O)NCC(F)(F)F [Compound 26-a, (1S,5R)-3-(2-((1,3-dimethyl-1H-pyrazol-4-yl)amino)-5-methylpyrimidin-4-yl)-N-(2,2,2-trifluoroethyl)-8-azabicyclo[3.2.1]oct-2-ene-8-carboxamide]	> 1000 nM
Cn1cc(Nc2ncc(F)c(C3=CC4CCC(C3)N4C(=O)[C@@H]3CC3(F)F)n2)cn1 (stereo partly drawn) [Compound 21, ((S)-2,2-difluorocyclopropyl)(3-(5-fluoro-2-((1-methyl-1H-pyrazol-4-yl)amino)pyrimidin-4-yl)-8-azabicyclo[3.2.1]oct-2-en-8-yl)methanone]	< 100 nM
Cn1cc(Nc2nccc(C3=CC4CCC(C3)N4C(=O)C3(C#N)CCOCC3)n2)cn1 (stereo not shown) [Compound 64, 4-(3-(2-((1-methyl-1H-pyrazol-4-yl)amino)pyrimidin-4-yl)-8-azabicyclo[3.2.1]oct-2-ene-8-carbonyl)tetrahydro-2H-pyran-4-cyano]	300 to 1000 nM
Cc1cnc(Nc2cnn(CC(C)(C)O)c2)nc1C1=C[C@H]2CC[C@@H](C1)N2C(=O)NCC(F)(F)F [Compound 29-b, (1R,5S)-3-(2-((1-(2-Hydroxy-2-methylpropyl)-1H-pyrazol-4-yl)amino)-5-methylpyrimidin-4-yl)-N-(2,2,2-trifluoroethyl)-8-azabicyclo[3.2.1]oct-2-ene-8-carboxamide]	< 100 nM
O=C(NCC(F)(F)F)N1C2C=C(c3ccnc(Nc4cnn(CCO)c4)n3)CC1CC2 (stereo not shown) [Compound 42, 3-(2-((1-(2-hydroxyethyl)-1H-pyrazol-4-yl)amino)pyrimidin-4-yl)-N-(2,2,2-trifluoroethyl)-8-azabicyclo[3.2.1]oct-2-ene-8-carboxamide]	< 100 nM
Cn1cc(Nc2nccc(C3=CC4CCC(C3)N4C3(CC#N)CN(C(=O)[C@@H]4CC4(F)F)C3)n2)cn1 (stereo partly drawn) [Compound 85, 2-(1-((S)-2,2-difluorocyclopropane-1-carbonyl)-3-(3-(2-((1-methyl-1H-pyrazol-4-yl)amino)pyrimidin-4-yl)-8-azabicyclo[3.2.1]oct-2-en-8-yl)azetidin-3-yl)acetonitrile]	> 1000 nM
Cc1cnc(Nc2cnn(C3CC3)c2)nc1C1=CC2CCC(C1)N2C(=O)NCC(F)(F)F (stereo not shown) [Compound 31, 3-(2-((1-Cyclopropyl-1H-pyrazol-4-yl)amino)-5-methylpyrimidin-4-yl)-N-(2,2,2-trifluoroethyl)-8-azabicyclo[3.2.1]oct-2-ene-8-carboxamide]	< 100 nM
Cn1cc(Nc2ncc(F)c(C3=C[C@@H]4CC[C@H](C3)N4C(=O)NCC(F)(F)F)n2)cn1 (single isomer, unassigned) [Compound 12-a]	< 100 nM
Cn1cc(Nc2nccc(C3=CC4CCC(C3)N4C(=O)C34CC(C#N)(C3)C4)n2)cn1 (stereo not shown) [Compound 73, 3-(3-(2-((1-methyl-1H-pyrazol-4-yl)amino)pyrimidin-4-yl)-8-azabicyclo[3.2.1]oct-2-ene-8-formyl)bicyclo[1.1.1]pentane-1-carbonitrile]	> 1000 nM
Cc1cnc(Nc2cnn(C)c2)nc1C1=CC2CCC(C1)N2C(=O)[C@@H]1CC1(F)F (stereo partly drawn) [Compound 22, ((S)-2,2-difluorocyclopropyl)(3-(5-methyl-2-((1-methyl-1H-pyrazol-4-yl)amino)pyrimidin-4-yl)-8-azabicyclo[3.2.1]oct-2-en-8-yl)methanone]	< 100 nM
